{
  "source": "patent US9376665B2",
  "about": "“Method for producing intestinal cells” (National University Corporation Kumamoto University, priority 2010, dated 2016)",
  "key": {"[1]": {"system": "mouse ES cells", "assay": "Intestinal differentiation of mouse ES cells on M15 cells; marker expression by PCR and immunohistochemistry", "format": "cell-based", "conditions": "quantitative PCR, BIO or DAPT added alone after definitive endoderm induction, Day 20 (d20)", "procedure": "In this example, a cell line R1 was used as mouse ES cells. The cell line R1 was maintained on mouse embryonic fibroblast (MEF) feeders in 2000 mg/L-glucose-containing DMEM supplemented with Leukemia Inhibitory Factor (LIF), 10% fetal bovine serum (FBS), 100 μM of non-essential amino acids (NEAA), 2 mM of L-Gln, 50 units/mL of penicillin and 50 μg/mL of streptomycin (PS), and 100 μM β-mercaptoethanol.\n(§1) The ES cells were culture on M15 cells added with 20 ng/mL of activin and 50 ng/mL of bFGF in DMEM medium containing 10% fetal bovine sera and […] of glucose for 5 days, and were analyzed using flow cytometry for definitive endoderm. For intestinal differentiation, the ES cells were further cultured on M15 or MEF cells, in the presence of BIO and DAPT, or without BIO and DAPT but with FGFs, in media with 10% KSR at a glucose concentration of 2000 mg/mL.\nRNA was extracted from the ES cells using TRI Reagent (Sigma) or RNeasy micro-kit (Qiagen), and then, was treated with DNase (Sigma). Three micrograms of RNA were reverse-transcribed using a MMLV reverse transcriptase (Toyobo) and oligo dT primers (Toyobo). […]"}, "[2]": {"system": "definitive endoderm cells", "assay": "Re-culture of sorted ES cell-derived definitive endoderm cells on feeder cells with BIO and DAPT; marker expression", "format": "cell-based, mouse", "procedure": "as §1\nThe cells were dissociated with Cell Dissociation Buffer (Invitrogen), adjusted to 1×10^6 cells/50 μL, and stained with appropriate antibodies. A biotin- or Alexa 488-conjugated anti-E-cadherin monoclonal antibody ECCD2, and a phycoerythrin (PE)-conjugated anti-Cxcr4 mAb 2B11 (BD Pharmingen) were used as the antibodies. The stained cells were purified with FACS Aria (BD Pharmingen). Data were recorded using the BD FACSDiva Software program (BD Pharmingen), and were analyzed using the Flowjo program (Tree Star).\n(§2) RNA was extracted from the ES cells using TRI Reagent (Sigma) or RNeasy micro-kit (Qiagen), and then, was treated with DNase (Sigma). Three micrograms of RNA were reverse-transcribed using a MMLV reverse transcriptase (Toyobo) and oligo dT primers (Toyobo). The PCR conditions for each cycle include initial denaturation at 96° C. for one minute, and the second and subsequent cycles of denaturation at 96° C. for 30 seconds, annealing at 60° C. for 2 seconds and extension at 72° C. for 20 seconds, and the final cycle of extension at 72° C. for 7 minutes. RT-PCR products were separated by 5% non-denaturing polyacrylamide gel electrophoresis, stained with SYBR Green I (Molecular Probes), and visualized using Gel Logic 200 Imaging System (Kodak)."}, "[3]": {"system": "mouse ES cells", "assay": "Test Example 2: addition of various activators, proportion of Cdx2-positive cells by flow cytometry, feeder-free", "format": "cell-based", "conditions": "for efficiency of differentiation, BMP4 or SAG added besides FGF2: 15th day of cultivation, with BIO and DAPT", "procedure": "Therefore, next, an experiment in which the FGF signaling, the BMP signaling and the Hh signaling were activated was carried out. In view of micro-array data showing that MEF cells express FGF2 and BMP4, 50 ng/mL of FGF2 (PEPROTECH) and 25 ng/mL of BMP4 (R&D Systems) were used to activate the FGF signaling and the BMP signaling. Furthermore, as to activation of the Hh signaling, 300 nM of SAG (MERCK) (smoothend agonist; smo) was used.\nFor the experiment of inducing the differentiation, the induction of differentiation was carried out in a feeder-free system as described below. First, mouse ES cells were plated on a gelatin-coated dish at 6,900 cells/cm^2. The ES cells were cultured for 7 days in DMEM medium (Dulbecco's Modified Eagle Medium) (Invitrogen, Glasgow, UK) containing 4,500 mg/L of glucose, supplemented with NEAA, L-Gln, PS, β-ME, 10 μg/mL of Insulin (Sigma-Aldrich), […] of Transferin (Sigma-Aldrich), 6.7 pg/mL of Selenium (Sigma-Aldrich), 0.25% AlbuMax (Invitrogen), and 10 ng/mL of recombinant human activin A (R&D Systems, Minneapolis, Minn.), and then, the culture medium was replaced with 10% KSR containing 2,000 mg/mL of glucose, BIO (5 μM) and DAPT (10 μM) and further supplemented with the activator or growth factor. After that, cell culturing was further continued, the cells were separated on the 10th day and the 15th day of cultivation as described in Example 1, and then, the proportion of Cdx2-positive cells was evaluated by use of flow cytometry. The flow cytometry (FACS) analysis was carried out using BD Cytofix/Cytoperm™ Kit (BD Biosciences) in accordance with a manual provided by the manufacturer."}, "[4]": {"system": "ES cells", "assay": "Effect of signalling inhibitors on intestinal differentiation by BIO and DAPT (Cdx2 RT-PCR and immunohistochemistry)", "format": "cell-based, mouse", "conditions": "inhibitor added with BIO and DAPT on MEF cells; RT-PCR and anti-Cdx2 immunohistochemistry, day 12", "quoted_text": "Definitive endoderms were sorted from ES cells which had been cultured on M15 cells with activin and bFGF for 4 days, and the sorted cells were re-plated on MEF cells.\n10 μg/mL of human bFGF (Peprotech), U0126 (Sigma), LY294002 (Calbiochem), and SU5402 (Calbiochem), respectively;"}, "[5]": {"system": "mouse ES cells", "assay": "Test Example 1: addition of various inhibitors, Cdx2 expression by real-time PCR", "format": "cell-based", "conditions": "inhibitor plus BIO (5 μM) and DAPT (10 μM) on MEF cells for 8 days (12th day of cultivation), Noggin 500 ng/mL, Dorsomorphin 200 nM, KAAD-Cyclopamine 250 nM", "procedure": "In order to clarify what mechanism induces the intestinal differentiation in a case where mouse ES cells are used as a starting material, inhibitors against various signal transduction systems were added besides BIO and DAPT, and conditions in which expression of an intestinal marker Cdx2 decreases were evaluated.\nAs an inhibitor, 500 ng/mL of Noggin (R&D systems) or 200 nM of Dorsomorphin (SIGMA-ALDRICH), which is a BMP-signaling inhibitor; 1 μM of LE540 (Wako), which is a retinoic-acid-signaling inhibitor; 250 nM of KAAD-Cyclopamine (Calbiochem), which is a hedgehog-signaling inhibitor; or 10 μM of AMD3100 (SIGMA-ALDRICH), which is a Cxcr4 inhibitor, was added thereto. […] After that, the above-sorted definitive endoderm cells were cultured in the presence of BIO (5 μM) and DAPT (10 μM) as well as the above-mentioned inhibitor for 8 days (until the 12th day of cultivation) in accordance with the method described in Example 1, RNAs were extracted from the cells by the method described in Example 1, and expression of the Cdx2 gene, namely an intestinal marker, was analyzed by real-time PCR. The real-time PCR was carried out by use of the primer pairs used in Example 1 (see Table 1), Thunderbird SYBR qPCR mix (Toyobo), and 7500 Fast Real-Time PCR system (ABI Company)."}, "[6]": {"system": "definitive endoderm cells", "assay": "Effects of FGFs on intestinal differentiation of definitive endoderm cells (RT-PCR, Cdx2 immunohistochemistry)", "format": "cell-based, mouse", "conditions": "FGFs added from Day 4 of the differentiation, on MEF cells; immunohistochemistry on day 12", "procedure": "as §1\n256 ng/mL of FGF2 (human bFGF) (Peprotech); and\n50 ng/mL of FGF4 (Peprotech), FGF5 (Sigma), FGF7 (R&D Systems), FGF8 (Cosmo Bio), FGF9 (Peprotech), FGF10 (R&D Systems) and FGF18 (Sigma), respectively.\nas §2"}, "[7]": {"conditions": "high BIO concentration with DAPT (10 μM)"}, "[8]": {"conditions": "high concentration of DAPT in the presence of BIO (5 μM)"}},
  "data": [
    {"molecule": "O=C1Nc2cc(Br)ccc2/C1=C1/Nc2ccccc2/C1=N\\O", "note": "[BIO, (2′Z,3′E)-6-bromoindirubin-3′-oxime]", "values": [
      {"measurement": "expression of Intestinal fatty acid binding protein (Ifabp)", "setting": "[1]", "result": "induced expression"},
      {"measurement": "Hoxc8", "setting": "[2]; [7]", "result": "turning on"},
      {"measurement": "Pax8", "setting": "[2]; [7]", "result": "turned off"}
    ]},
    {"molecule": "C[C@H](NC(=O)Cc1cc(F)cc(F)c1)C(=O)N[C@H](C(=O)OC(C)(C)C)c1ccccc1", "note": "[DAPT, N-[(3,5-difluorophenyl)acetyl]-L-Ala-2-phenyl-L-Gly-tert-butyl-OH]", "values": [
      {"measurement": "expression of Intestinal fatty acid binding protein (Ifabp)", "setting": "[1]", "result": "induced expression"},
      {"measurement": "anterior marker Pax8", "setting": "[2]; [8]", "result": "turned off"},
      {"measurement": "posterior marker Hoxc8", "setting": "[2]; [8]", "result": "inducing"}
    ]},
    {"molecule": "CNC1CCC(N(Cc2cccc(-c3ccncc3)c2)C(=O)c2sc3ccccc3c2Cl)CC1", "note": "(stereo not drawn) [SAG, N-Methyl-N′-(3-pyridinylbenzyl)-N′-(3-chlorobenzo[b]thiophene-2-carbonyl)-1,4-diaminocyclohexane, reference compound]", "values": [
      {"measurement": "number of Cdx2-positive cells versus control (only BIO and DAPT)", "setting": "[3]; 10th day of cultivation, FGF2 50 ng/mL or SAG 300 nM added besides BIO and DAPT", "result": "decrease"},
      {"measurement": "efficiency of differentiation, BMP4 or SAG added besides FGF2", "setting": "[3]", "result": "yet more efficiently differentiate"}
    ]},
    {"molecule": "Cc1c[nH]c(/C=C2\\C(=O)Nc3ccccc32)c1CCC(=O)O", "note": "[SU5402]", "values": [
      {"measurement": "intestinal differentiation mediated by BIO and DAPT (Cdx2 expression)", "setting": "[4]", "result": "partially inhibited"}
    ]},
    {"molecule": "N#CC(=C(/N)Sc1ccccc1N)/C(C#N)=C(\\N)Sc1ccccc1N", "note": "[U0126]", "values": [
      {"measurement": "intestinal differentiation mediated by BIO and DAPT (Cdx2 expression)", "setting": "[4]", "result": "not inhibited"}
    ]},
    {"molecule": "KAAD-Cyclopamine [reference compound]", "values": [
      {"measurement": "expression of Cdx2", "setting": "[5]", "result": "lowered"}
    ]},
    {"molecule": "FGF4: FGF4 (Peprotech), growth factor (protein, UniProt P08620 31-206, looked up) Fibroblast growth factor 4: APTAPNGTLEAELERRWESLVALSLARLPVAAQPKEAAVQSGAGDYLLGIKRLRRLYCNVGIGFHLQALPDGRIGGAHADTRDSLLELSPVERGVVSIFGVASRFFVAMSSKGKLYGSPFFTDECTFKEILLPNNYNAYESYKYPGMFIALSKNGKTKKGNRVSPTMKVTHFLPRL", "values": [
      {"measurement": "induction of Cdx2-expressing intestinal cells", "setting": "[6]", "result": "more potent in inducing Cdx2-expressing cells than FGF2 (bFGF)"}
    ]},
    {"molecule": "FGF7: FGF7 (R&D Systems), growth factor (protein, UniProt P21781 32-194, looked up) Fibroblast growth factor 7: CNDMTPEQMATNVNCSSPERHTRSYDYMEGGDIRVRRLFCRTQWYLRIDKRGKVKGTQEMKNNYNIMEIRTVAVGIVAIKGVESEFYLAMNKEGKLYAKKECNEDCNFKELILENHYNTYASAKWTHNGGEMFVALNQKGIPVRGKKTKKEQKTAHFLPMAIT", "values": [
      {"measurement": "induction of Cdx2-expressing intestinal cells", "setting": "[6]", "result": "induced intestinal differentiation of ES cells, but the levels thereof were lower"}
    ]},
    {"molecule": "FGF10: FGF10 (R&D Systems), growth factor (protein, UniProt O15520 38-208, looked up) Fibroblast growth factor 10: QALGQDMVSPEATNSSSSSFSSPSSAGRHVRSYNHLQGDVRWRKLFSFTKYFLKIEKNGKVSGTKKENCPYSILEITSVEIGVVAVKAINSNYYLAMNKKGKLYGSKEFNNDCKLKERIEENGYNTYASFNWQHNGRQMYVALNGKGAPRRGQKTRRKNTSAHFLPMVVHS", "values": [
      {"measurement": "induction of Cdx2-expressing intestinal cells", "setting": "[6]", "result": "induced intestinal differentiation of ES cells, but the levels thereof were lower"}
    ]},
    {"molecule": "FGF18: FGF18 (Sigma), growth factor (protein, UniProt O76093 28-207, looked up) Fibroblast growth factor 18: EENVDFRIHVENQTRARDDVSRKQLRLYQLYSRTSGKHIQVLGRRISARGEDGDKYAQLLVETDTFGSQVRIKGKETEFYLCMNRKGKLVGKPDGTSKECVFIEKVLENNYTALMSAKYSGWYVGFTKKGRPRKGPKTRENQQDVHFMKRYPKGQPELQKPFKYTTVTKRSRRIRPTHPA", "values": [
      {"measurement": "induction of Cdx2-expressing intestinal cells", "setting": "[6]", "result": "induced intestinal differentiation of ES cells, but the levels thereof were lower"}
    ]},
    {"molecule": "Noggin: Noggin (R&D systems), a BMP-signaling inhibitor (protein, UniProt Q13253 28-232, looked up) Noggin: QHYLHIRPAPSDNLPLVDLIEHPDPIFDPKEKDLNETLLRSLLGGHYDPGFMATSPPEDRPGGGGGAAGGAEDLAELDQLLRQRPSGAMPSEIKGLEFSEGLAQGKKQRLSKKLRRKLQMWLWSQTFCPVLYAWNDLGSRFWPRYVKVGSCFSKRSCSVPEGMVCKPSKSVHLTVLRWRCQRRGGQRCGWIPIQYPIISECKCSC", "values": [
      {"measurement": "expression of Cdx2", "setting": "[5]", "result": "lowered"}
    ]},
    {"molecule": "BMP4: BMP4 (R&D Systems), activates the BMP signaling (protein, UniProt P12644 293-408, looked up) Bone morphogenetic protein 4: SPKHHSQRARKKNKNCRRHSLYVDFSDVGWNDWIVAPPGYQAFYCHGDCPFPLADHLNSTNHAIVQTLVNSVNSSIPKACCVPTELSAISMLYLDEYDKVVLKNYQEMVVEGCGCR", "values": [
      {"measurement": "number of Cdx2-positive cells, BMP4 added in addition to SAG", "setting": "[3]; 10th day of cultivation, BMP4 25 ng/mL, SAG 300 nM, BIO and DAPT", "result": "improved"},
      {"measurement": "efficiency of differentiation, BMP4 or SAG added besides FGF2", "setting": "[3]", "result": "yet more efficiently differentiate"}
    ]}
  ]
}
